According to article PMC4076079, “Selective inhibitors of a PAF biosynthetic enzyme lysophosphatidylcholine acyltransferase 2” (Journal of Lipid Research, 2014):

What was measured:
Assay type in all cases: biochemical
hLPCAT1 = target: T1, hLPCAT1 (Homo sapiens, UniProt Q8NF37); test: acyltransferase activity assay, DPPC product by LC-MS/MS; settings: for IC50: 0, 0.2, 0.6, 2, 6 and 20 μM of each compound in triplicate, LC-MS/MS, read-out: IC50, product DPPC, enzyme hLPCAT1; for percentage inhibition, product DPPC, hLPCAT1: 20 μM compound, microsomal fractions of nonstimulated CHO-S-PAFR cells, n = 3, mean ± SEM
T1 construct: expressed in transfected cells
T1 sequence (Q8NF37 1-534): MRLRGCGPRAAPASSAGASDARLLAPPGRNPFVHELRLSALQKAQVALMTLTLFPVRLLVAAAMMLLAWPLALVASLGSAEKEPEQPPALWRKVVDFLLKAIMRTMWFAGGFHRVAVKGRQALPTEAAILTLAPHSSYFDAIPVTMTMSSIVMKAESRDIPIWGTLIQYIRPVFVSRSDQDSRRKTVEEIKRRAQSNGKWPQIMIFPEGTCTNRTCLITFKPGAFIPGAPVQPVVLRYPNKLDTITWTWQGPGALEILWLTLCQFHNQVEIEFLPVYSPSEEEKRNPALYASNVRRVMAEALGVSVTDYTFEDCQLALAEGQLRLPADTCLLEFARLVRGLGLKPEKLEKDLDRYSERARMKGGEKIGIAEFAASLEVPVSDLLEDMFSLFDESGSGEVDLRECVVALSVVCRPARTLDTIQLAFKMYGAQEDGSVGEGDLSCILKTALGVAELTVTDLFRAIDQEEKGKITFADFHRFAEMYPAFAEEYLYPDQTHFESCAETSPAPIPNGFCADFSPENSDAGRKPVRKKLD
Method: (§1) Microsomal protein fractions (0.5 μg) supplemented with the indicated compound concentrations were added to the reaction mixture containing 100 mM Tris-HCl (pH 7.4), 1 μM CaCl2, 0.015% Tween-20, and two substrates. For acetyltransferase activity, the substrates were 1 mM acetyl-CoA and 5 μM d4-lyso-PAF; for the acyltransferase activity of LPCAT1 or LPCAT2, the substrates were, respectively, palmitoyl-CoA and d31-16:0 LPC or arachidonoyl-CoA and d4-lyso-PAF (all 5 μM). Each lysophospholipid contained fatty acid at the sn-1 position. After incubation at 37°C for 5 min, the reactions were stopped by adding 300 μl methanol containing 17:0 LPC or 14:0/14:0 PC as an internal standard. Deuterium-labeled products were analyzed by LC-MS/MS (Waters, Milford, MA and Thermo Scientific, Waltham, MA). […]
Steps 2 to 5 screening: 96-well plate assay
Acetyltransferase and acyltransferase assays were developed in 96-well plates. The microsomal hLPCAT2, obtained from mcPAF-stimulated CHO-S-PAFR cells was used in steps 1, 2, and 5. The microsomal hLPCAT1 obtained from unstimulated CHO-S cells was used in steps 3 to 5. Each well of the 96-well plates contained 30 µl of 15 µg/ml protein, 600 nl of 2 mM compound, 30 µl buffer C, and two substrates (Fig. 1B and C).
Substrate concentrations were as follows: acetyl-CoA, 250 or 1000 µM acetyl-CoA; […]
arachidonoyl-CoA, 5 µM; palmitoyl-CoA, 5 µM; d4-lyso-PAF, 5 µM; and d31-LPC, 5 µM.
For step 5, compound concentrations were 0, 0.167, 0.67, 2, 6.7, and 20 µM. The deuterium-labeled products were measured by LC-MS/MS. Percentage inhibition (steps 2 to 4) or IC50 (step 5) was used as the hit criterion. […]
(§2) Step 7 screening: species-specific differences
(§3) To evaluate the effects on the activity of mouse or human LPCAT1 and LPCAT2, each microsomal fraction was obtained using CHO-S-PAFR cells with or without mcPAF (200 nM) stimulation for 5 min. Acetyltransferase and acyltransferase assays were performed with 20 µM of each compound. Percentage inhibition was calculated in each

mLPCAT1 = target: T2, mLPCAT1 (Mus musculus, UniProt Q3TFD2); test: lyso-PAFAT (acetyltransferase) activity assay, PAF product; settings: 20 μM compound; microsomal fractions of nonstimulated CHO-S-PAFR cells; n = 3, mean ± SEM
T2 construct: expressed in transfected cells; host or cells: CHO-S-PAFR cells, microsomal fraction
T2 sequence (Q3TFD2 1-534): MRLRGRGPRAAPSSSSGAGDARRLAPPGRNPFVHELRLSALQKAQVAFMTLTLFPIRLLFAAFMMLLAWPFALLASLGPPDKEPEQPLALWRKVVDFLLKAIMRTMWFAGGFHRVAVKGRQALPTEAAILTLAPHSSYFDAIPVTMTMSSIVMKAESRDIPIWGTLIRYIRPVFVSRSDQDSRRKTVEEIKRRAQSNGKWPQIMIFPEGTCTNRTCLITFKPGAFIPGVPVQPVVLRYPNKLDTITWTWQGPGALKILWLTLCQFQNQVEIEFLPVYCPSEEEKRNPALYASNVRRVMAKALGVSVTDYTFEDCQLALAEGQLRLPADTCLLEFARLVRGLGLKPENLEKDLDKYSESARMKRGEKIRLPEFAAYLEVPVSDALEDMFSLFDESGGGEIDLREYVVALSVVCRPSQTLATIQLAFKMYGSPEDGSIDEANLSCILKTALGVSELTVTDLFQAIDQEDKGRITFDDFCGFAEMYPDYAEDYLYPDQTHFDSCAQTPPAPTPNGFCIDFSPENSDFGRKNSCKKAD
Method: as §1
(§4) arachidonoyl-CoA, 5 µM; palmitoyl-CoA, 5 µM; d4-lyso-PAF, 5 µM; and d31-LPC, 5 µM. […]
(§5) deuterium-labeled products were measured by LC-MS/MS. […]
as §2, §3

mLPCAT2 = target: T3, mLPCAT2 (Mus musculus, UniProt Q8BYI6); test: as above; settings: 20 μM compound; microsomal fractions of nonstimulated CHO-S-PAFR cells; n = 3, mean ± SEM
T3 construct: expressed in transfected cells; host or cells: CHO-S-PAFR cells, microsomal fraction, with or without mcPAF stimulation
T3 sequence (Q8BYI6 1-544): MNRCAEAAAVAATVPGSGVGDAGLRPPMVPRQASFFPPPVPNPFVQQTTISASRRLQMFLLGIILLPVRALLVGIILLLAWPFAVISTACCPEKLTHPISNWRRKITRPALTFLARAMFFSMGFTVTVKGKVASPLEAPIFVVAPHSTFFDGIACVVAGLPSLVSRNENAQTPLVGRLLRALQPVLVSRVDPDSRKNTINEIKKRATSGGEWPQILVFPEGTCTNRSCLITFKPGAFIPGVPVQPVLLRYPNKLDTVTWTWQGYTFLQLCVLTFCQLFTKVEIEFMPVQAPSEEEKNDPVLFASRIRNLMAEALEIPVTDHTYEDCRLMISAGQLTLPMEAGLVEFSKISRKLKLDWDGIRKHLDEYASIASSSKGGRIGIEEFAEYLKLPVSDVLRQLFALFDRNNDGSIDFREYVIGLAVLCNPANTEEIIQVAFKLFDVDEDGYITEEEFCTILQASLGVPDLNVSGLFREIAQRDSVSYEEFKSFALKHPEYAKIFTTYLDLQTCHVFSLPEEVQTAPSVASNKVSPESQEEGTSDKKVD
Method: as §1, §4, §5, §2, §3

Row | SMILES | IC50 (hLPCAT1) [µM] | percentage inhibition, product DPPC, hLPCAT1 (hLPCAT1) [percentage] | percentage inhibition, product PAF, mLPCAT1 (mLPCAT1) [percentage] | percentage inhibition, product PAF, mLPCAT2 (mLPCAT2) [percentage]
1 | CC(C)OC(=O)c1ccc(N2C(=O)C(Cl)=C(Cl)C2=O)cc1 [TSI-01, propan-2-yl 4-(3,4-dichloro-2,5-dioxopyrrol-1-yl)benzoate] | > 20 | 25.3 ± 8.7 | 89.2 ± 1.8 | 99.2 ± 0.2
2 | O=C1C(Cl)=C(N2CCOCC2)C(=O)N1c1ccc(Oc2ccccc2)cc1 [TSI-02, 3-chloro-4-morpholin-4-yl-1-(4-phenoxyphenyl)pyrrole-2,5-dione] | > 20 |  |  | 
3 | CC(C)OC(=O)c1ccc(N2C(=O)C(Cl)=C(Nc3ccccc3O)C2=O)cc1 [TSI-07] | > 20 | 19.5 ± 8.0 | 33.6 ± 6.1 | 84.1 ± 6.4
4 | CCCOC(=O)c1ccc(N2C(=O)C(Cl)=C(Cl)C2=O)cc1 [TSI-10] | > 20 | 23.9 ± 3.4 | 89.6 ± 1.1 | 99.1 ± 0.2
5 | CCCCOC(=O)c1ccc(N2C(=O)C(Cl)=C(Cl)C2=O)cc1 [TSI-11, butyl 4-(3,4-dichloro-2,5-dioxopyrrol-1-yl)benzoate] | > 20 | 14.2 ± 4.8 | 89.3 ± 1.1 | 98.9 ± 0.3
